The values that follow come from US20070185055A1, “Method for treating cachexia with retinoid ligands” (priority 2006, published 2007).

The subject of experiment [1] is AIDS and cancer patients. Conditions: cited from earlier work.
Experiment [2] relates to nude mice bearing H292 xenografts (non-small cell lung cancer cells H292). Put plainly: Cachexia in nude mice bearing H292 xenografts. In kind it is in vivo. To be noted: for body weight of the animals: s.c. H292 xenograft. An excerpt: FIGS. 1-5 comprise charts or graphs disclosing the results of tests obtained with experimental animals that have been inoculated with a xenograft of non-small cell lung cancer cells H292 or with small cell lung cancer cells H446, and which were then orally administered the RXR agonist Compound 1 referred to above. […]
Specifically, in the experiment shown in FIG. 1 nude mice were subcutaneously transplanted with non-small cell lung cancer cells H292. A group of the animals was given a daily oral dose of 10 mg per kilogram body weight of Compound 1 in a suitable pharmaceutically acceptable vehicle. A group of the control animals was given the vehicle only.
In the experiment shown in FIG. 4 the right gastrocnemius muscle of the control animals and of the animals treated with Compound 1 in a daily dose of 10 mg/kg, as described in connection with FIG. 1, was weighed after the animals had been sacrificed.
In the experiment shown in FIG. 5, the food intake of nude mice with and without H292 xenografts was evaluated. Mice with H292 xenografts had reduced appetite compared with normal control. […] Therefore, adminstration of Compound 1 reverses poor appetite in cachectic animals. […]

Experiment [3] has as its system SCID mice transplanted with small cell lung cancer cells H446. Put plainly: Cachexia in SCID mice bearing metastatic H446 tumors. Conditions: daily oral dose 3 mg/kg or 10 mg/kg, versus vehicle only (FIG. 3). Format: in vivo. Here is the method: FIGS. 1-5 comprise charts or graphs disclosing the results of tests obtained with experimental animals that have been inoculated with a xenograft of non-small cell lung cancer cells H292 or with small cell lung cancer cells H446, and which were then orally administered the RXR agonist Compound 1 referred to above.
In the experiment shown in FIG. 3, SCID mice were subcutaneously transplanted with small cell lung cancer cells H446. A first group of the animals was given a daily oral dose of 3 mg per kilogram body weight of Compound 1 in a suitable pharmaceutically acceptable vehicle, and a second group was given a daily oral dose of 10 mg per kilogram body weight in the same vehicle. A group of the control animals was given the vehicle only.

Where [4] appears, read: patients, J. Clin. Oncol., 20: 567 (2002).
Where [5] appears, read: AIDS as well as cancer patients, literature.

Take `CCCCCc1cc(O)c2c(c1)OC(C)(C)[C@@H]1CCC(C)=C[C@@H]21` [Dronabinol]: in experiment [1] (setting [4]), the appetite entry was “improved appetite”; the “mood and body weight improvement” value was “no effect”.
As to `CCC[C@]1(c2ccc3c(c2)C(C)(C)CCC3(C)C)C[C@H]1/C=C/C(C)=C/C(=O)O` [Compound 2], the average food intake result in experiment [2] (nude mice bearing H292 xenografts, daily dose 50 mg/kg, versus vehicle (FIG. 7)) is recorded as “significantly larger food intake”. Also, the “body weight of the animals” value in experiment [2] (nude mice, daily oral dose 50 mg/kg, versus vehicle only (FIG. 6)) is listed as “significantly greater body weights”.
Consider `CC(/C=C/[C@@H]1C[C@]1(C)c1ccc2c(c1)C(C)(C)CCC2(C)C)=C\C(=O)O` [Compound 1], for which the “body weight of the animals” value is reported as “significantly greater body weights” in experiment [3] and “significantly greater body weights” in experiment [2] (nude mice, daily oral dose 10 mg/kg, versus vehicle only (FIG. 1)). The “weight of the right gastrocnemius muscle” value in experiment [2] (H292 xenograft mice, 62 days after transplantation, daily dose 10 mg/kg, versus control (FIG. 4)) is given as “prevents muscle wasting”. The average food intake entry in experiment [2] (nude mice with H292 xenografts, daily dose 10 mg/kg, compared with normal mice (FIG. 5)) was “equal amount of food intake as normal mice”. Besides, the percentage of survival result in experiment [2] (nude mice, H292 xenograft, daily oral dose 10 mg/kg, versus vehicle (FIG. 2)) was “significantly better survival rate”.
As to `C[C@]12COC(=O)C[C@@H]1CC[C@@H]1[C@@H]2CC[C@@]2(C)[C@H]1CC[C@]2(C)O` [Oxandrolone], the body weight result in experiment [1] (patients, literature, for Oxandrolone might have represented primary edema) is recorded as “moderate increase of body weight”.
Consider `CC(=O)O[C@]1(C(C)=O)CC[C@H]2[C@@H]3C=C(C)C4=CC(=O)CC[C@]4(C)[C@H]3CC[C@@]21C` [Megestrol acetate], for which, in experiment [1] (setting [5]), the body weight gain result is “at least five pounds” and the “primary body component that increased” value is reported as “fat, but not lean body mass”.
